Measurements from paper PMC9506414, “Novel 2,6,9-Trisubstituted Purines as Potent CDK Inhibitors Alleviating Trastuzumab-Resistance of HER2-Positive Breast Cancers” (Pharmaceuticals, 2022).

How the values were obtained:
Assay in all cases: Kinome-wide inhibition profiling
Format in all cases: biochemical
AurkA = target: T1, AurkA (Homo sapiens, UniProt O14965)
T1 construct: purchased Reaction Biology Corp
Description: (§1) In vitro CDK12/cyclinK assays for all compounds and in vitro kinome-wide inhibition profiling of 30d at 10 μM were performed by a CRO company (Reaction Biology Corp., San Diego, CA, USA).

AurkB = target: T2, AurkB (Homo sapiens, UniProt Q96GD4)
T2 construct: purchased Reaction Biology Corp
Description: as §1

BTK = target: T3, BTK (Homo sapiens, UniProt Q06187)
T3 construct: purchased Reaction Biology Corp
Description: as §1

CAMK1a = target: T4, CAMK1a (Homo sapiens, UniProt Q14012)
T4 construct: purchased Reaction Biology Corp
Description: as §1

CAMK2g = target: T5, CAMK2g (Homo sapiens, UniProt Q13555)
T5 construct: purchased Reaction Biology Corp
Description: as §1

CDK4/cyclinD1 = target: T6, CDK4/cyclinD1 (Homo sapiens, UniProt P11802)
T6 construct: purchased Reaction Biology Corp
Description: as §1

CDK9/cyclinT1 = target: T7, CDK9/cyclinT1 (Homo sapiens, UniProt P50750)
T7 construct: purchased Reaction Biology Corp
T7 sequence (P50750 whole entry): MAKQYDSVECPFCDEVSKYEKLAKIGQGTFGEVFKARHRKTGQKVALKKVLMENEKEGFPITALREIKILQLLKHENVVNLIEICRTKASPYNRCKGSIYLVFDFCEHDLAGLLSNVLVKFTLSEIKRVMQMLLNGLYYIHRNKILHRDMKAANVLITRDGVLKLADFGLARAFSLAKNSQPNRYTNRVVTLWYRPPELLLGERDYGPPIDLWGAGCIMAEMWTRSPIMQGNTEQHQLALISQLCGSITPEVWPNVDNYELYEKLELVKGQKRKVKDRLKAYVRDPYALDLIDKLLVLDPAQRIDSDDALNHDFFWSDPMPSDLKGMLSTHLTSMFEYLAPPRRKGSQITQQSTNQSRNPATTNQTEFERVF
T7 sequence (O60563 whole entry partner): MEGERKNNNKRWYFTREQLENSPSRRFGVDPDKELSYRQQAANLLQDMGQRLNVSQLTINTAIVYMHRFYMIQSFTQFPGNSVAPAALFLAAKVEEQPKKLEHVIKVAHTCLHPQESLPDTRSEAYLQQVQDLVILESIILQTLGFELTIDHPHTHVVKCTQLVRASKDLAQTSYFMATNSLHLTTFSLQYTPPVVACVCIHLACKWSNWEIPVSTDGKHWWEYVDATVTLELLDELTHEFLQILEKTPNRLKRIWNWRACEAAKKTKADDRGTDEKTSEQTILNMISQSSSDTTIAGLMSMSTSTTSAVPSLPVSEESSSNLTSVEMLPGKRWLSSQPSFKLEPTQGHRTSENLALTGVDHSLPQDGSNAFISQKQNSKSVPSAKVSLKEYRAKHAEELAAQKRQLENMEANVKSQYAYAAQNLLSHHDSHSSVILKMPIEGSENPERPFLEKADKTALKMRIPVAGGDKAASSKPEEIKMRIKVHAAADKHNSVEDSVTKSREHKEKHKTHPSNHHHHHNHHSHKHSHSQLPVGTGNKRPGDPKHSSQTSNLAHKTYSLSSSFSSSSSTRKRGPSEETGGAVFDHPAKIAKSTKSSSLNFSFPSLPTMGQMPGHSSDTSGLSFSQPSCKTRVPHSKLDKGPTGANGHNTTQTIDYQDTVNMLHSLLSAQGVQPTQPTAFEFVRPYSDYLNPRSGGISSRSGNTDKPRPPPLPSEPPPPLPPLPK
Description: as §1

CHEK1 = target: T8, CHEK1 (Homo sapiens, UniProt O14757)
T8 construct: purchased Reaction Biology Corp
Description: as §1

CSNK1G3 = target: T9, CSNK1G3 (Homo sapiens, UniProt Q9Y6M4)
T9 construct: purchased Reaction Biology Corp
T9 sequence (Q9Y6M4 whole entry): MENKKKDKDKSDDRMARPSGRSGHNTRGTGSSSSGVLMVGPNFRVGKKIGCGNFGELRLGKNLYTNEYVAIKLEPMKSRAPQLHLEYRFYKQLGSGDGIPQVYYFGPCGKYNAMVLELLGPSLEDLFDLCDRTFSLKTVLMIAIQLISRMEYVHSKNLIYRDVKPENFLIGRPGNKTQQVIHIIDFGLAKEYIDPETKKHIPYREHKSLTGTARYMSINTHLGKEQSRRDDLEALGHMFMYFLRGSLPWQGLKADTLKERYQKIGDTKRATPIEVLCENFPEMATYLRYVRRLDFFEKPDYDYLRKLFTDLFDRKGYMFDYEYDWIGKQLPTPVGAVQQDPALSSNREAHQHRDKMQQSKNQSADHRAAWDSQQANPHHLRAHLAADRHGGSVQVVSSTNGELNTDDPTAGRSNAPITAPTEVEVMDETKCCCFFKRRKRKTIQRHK
Description: as §1

CSNK2A2 = target: T10, CSNK2A2 (Homo sapiens, UniProt P19784)
T10 construct: purchased Reaction Biology Corp
Description: as §1

DAPK2 = target: T11, DAPK2 (Homo sapiens, UniProt Q9UIK4)
T11 construct: purchased Reaction Biology Corp
Description: as §1

EPHA5 = target: T12, EPHA5 (Homo sapiens, UniProt P54756)
T12 construct: purchased Reaction Biology Corp
Description: as §1

ERK5 = target: T13, ERK5 (Homo sapiens, UniProt Q13164)
T13 construct: purchased Reaction Biology Corp
Description: as §1

ERN2 = target: T14, ERN2 (Homo sapiens, UniProt Q76MJ5)
T14 construct: purchased Reaction Biology Corp
Description: as §1

FGFR1 = target: T15, FGFR1 (Homo sapiens, UniProt P11362)
T15 construct: purchased Reaction Biology Corp
Description: as §1

FLT4 = target: T16, FLT4 (Homo sapiens, UniProt P35916)
T16 construct: purchased Reaction Biology Corp
Description: as §1

FMS = target: T17, FMS (Homo sapiens, UniProt P07333)
T17 construct: purchased Reaction Biology Corp
Description: as §1

GRK4 = target: T18, GRK4 (Homo sapiens, UniProt P32298)
T18 construct: purchased Reaction Biology Corp
Description: as §1

HPK1 = target: T19, HPK1 (Homo sapiens, UniProt Q92918)
T19 construct: purchased Reaction Biology Corp
Description: as §1

INSR = target: T20, INSR (Homo sapiens, UniProt P06213)
T20 construct: purchased Reaction Biology Corp
Description: as §1

JNK2 = target: T21, JNK2 (Homo sapiens, UniProt P45984)
T21 construct: purchased Reaction Biology Corp
Description: as §1

LKB1 = target: T22, LKB1 (Homo sapiens, UniProt Q15831)
T22 construct: purchased Reaction Biology Corp
T22 sequence (Q15831 whole entry): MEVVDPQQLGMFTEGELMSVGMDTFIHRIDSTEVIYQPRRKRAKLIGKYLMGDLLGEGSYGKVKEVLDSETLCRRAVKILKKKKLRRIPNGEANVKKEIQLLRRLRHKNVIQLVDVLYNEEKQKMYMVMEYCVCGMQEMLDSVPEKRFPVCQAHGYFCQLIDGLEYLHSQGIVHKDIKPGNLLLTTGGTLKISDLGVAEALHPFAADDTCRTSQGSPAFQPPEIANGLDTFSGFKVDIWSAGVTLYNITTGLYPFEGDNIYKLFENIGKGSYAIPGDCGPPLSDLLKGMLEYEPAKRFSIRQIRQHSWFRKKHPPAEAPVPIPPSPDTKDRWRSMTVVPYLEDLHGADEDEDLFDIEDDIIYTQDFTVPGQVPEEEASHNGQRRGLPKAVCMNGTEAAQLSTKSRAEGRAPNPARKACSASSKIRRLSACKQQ
T22 sequence (Q7RTN6 whole entry partner): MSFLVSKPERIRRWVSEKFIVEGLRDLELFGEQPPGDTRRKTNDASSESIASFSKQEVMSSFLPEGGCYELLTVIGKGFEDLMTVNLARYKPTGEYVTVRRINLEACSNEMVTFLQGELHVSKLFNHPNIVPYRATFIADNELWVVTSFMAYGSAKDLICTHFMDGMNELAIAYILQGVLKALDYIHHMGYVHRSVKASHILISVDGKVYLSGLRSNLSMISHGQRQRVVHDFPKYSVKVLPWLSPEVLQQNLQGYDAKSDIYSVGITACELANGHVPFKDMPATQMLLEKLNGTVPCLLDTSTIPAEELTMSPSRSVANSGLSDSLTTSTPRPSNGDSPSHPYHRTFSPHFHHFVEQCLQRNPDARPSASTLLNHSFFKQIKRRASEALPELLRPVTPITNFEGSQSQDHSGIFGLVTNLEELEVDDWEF
T22 sequence (Q9Y376 whole entry partner): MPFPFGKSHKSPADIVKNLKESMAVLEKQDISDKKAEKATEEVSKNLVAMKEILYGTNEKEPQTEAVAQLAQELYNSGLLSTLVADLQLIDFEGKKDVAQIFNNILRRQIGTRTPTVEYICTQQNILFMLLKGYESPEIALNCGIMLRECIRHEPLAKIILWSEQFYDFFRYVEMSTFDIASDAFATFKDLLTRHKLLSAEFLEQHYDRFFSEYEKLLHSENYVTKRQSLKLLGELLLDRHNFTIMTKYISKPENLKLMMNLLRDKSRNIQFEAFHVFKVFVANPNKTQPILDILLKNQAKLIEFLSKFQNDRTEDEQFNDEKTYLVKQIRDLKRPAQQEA
Description: as §1

LRRK2 = target: T23, LRRK2 (Homo sapiens, UniProt Q5S007)
T23 construct: purchased Reaction Biology Corp
Description: as §1

MNK1 = target: T24, MNK1 (Homo sapiens, UniProt Q9BUB5)
T24 construct: purchased Reaction Biology Corp
Description: as §1

MST2 = target: T25, MST2 (Homo sapiens, UniProt Q13188)
T25 construct: purchased Reaction Biology Corp
Description: as §1

MYLK4 = target: T26, MYLK4 (Homo sapiens, UniProt Q86YV6)
T26 construct: purchased Reaction Biology Corp
T26 sequence (Q86YV6 whole entry): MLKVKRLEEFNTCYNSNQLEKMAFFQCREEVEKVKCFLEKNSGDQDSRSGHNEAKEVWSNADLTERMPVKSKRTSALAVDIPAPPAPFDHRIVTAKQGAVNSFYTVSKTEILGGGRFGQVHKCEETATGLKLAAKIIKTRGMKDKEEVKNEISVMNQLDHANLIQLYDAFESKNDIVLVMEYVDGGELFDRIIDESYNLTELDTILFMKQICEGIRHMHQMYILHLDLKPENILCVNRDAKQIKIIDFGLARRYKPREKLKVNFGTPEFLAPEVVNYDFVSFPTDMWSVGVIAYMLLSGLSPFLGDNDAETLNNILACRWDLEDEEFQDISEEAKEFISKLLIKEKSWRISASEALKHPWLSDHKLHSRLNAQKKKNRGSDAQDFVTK
Description: as §1

MYO3b = target: T27, MYO3b (Homo sapiens, UniProt Q8WXR4)
T27 construct: purchased Reaction Biology Corp
Description: as §1

NEK2 = target: T28, NEK2 (Homo sapiens, UniProt P51955)
T28 construct: purchased Reaction Biology Corp
Description: as §1

NEK9 = target: T29, NEK9 (Homo sapiens, UniProt Q8TD19)
T29 construct: purchased Reaction Biology Corp
Description: as §1

OSR1 = target: T30, OSR1 (Homo sapiens, UniProt O95747)
T30 construct: purchased Reaction Biology Corp
Description: as §1

P38-alpha = target: T31, P38-alpha (Homo sapiens, UniProt Q16539)
T31 construct: purchased Reaction Biology Corp
T31 sequence (Q16539 whole entry): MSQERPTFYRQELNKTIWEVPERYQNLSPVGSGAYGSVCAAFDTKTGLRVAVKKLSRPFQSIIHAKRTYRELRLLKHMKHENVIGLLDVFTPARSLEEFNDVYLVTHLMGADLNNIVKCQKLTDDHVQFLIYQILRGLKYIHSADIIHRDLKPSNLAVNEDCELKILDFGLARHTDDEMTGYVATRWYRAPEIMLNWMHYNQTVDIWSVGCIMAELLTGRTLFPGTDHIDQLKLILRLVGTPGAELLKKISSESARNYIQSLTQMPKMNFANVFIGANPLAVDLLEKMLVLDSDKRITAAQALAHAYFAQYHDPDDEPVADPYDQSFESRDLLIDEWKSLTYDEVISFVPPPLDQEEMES
Description: as §1

PKN1 = target: T32, PKN1 (Homo sapiens, UniProt Q16512)
T32 construct: purchased Reaction Biology Corp
Description: as §1

PRKD1 = target: T33, PRKD1 (Homo sapiens, UniProt Q15139)
T33 construct: purchased Reaction Biology Corp
Description: as §1

RIPK4 = target: T34, RIPK4 (Homo sapiens, UniProt P57078)
T34 construct: purchased Reaction Biology Corp
Description: as §1

ROS1 = target: T35, ROS1 (Homo sapiens, UniProt P08922)
T35 construct: purchased Reaction Biology Corp
Description: as §1

STK23 = target: T36, STK23 (Homo sapiens, UniProt Q9UPE1)
T36 construct: purchased Reaction Biology Corp
Description: as §1

TESK1 = target: T37, TESK1 (Homo sapiens, UniProt Q15569)
T37 construct: purchased Reaction Biology Corp
T37 sequence (Q15569 whole entry): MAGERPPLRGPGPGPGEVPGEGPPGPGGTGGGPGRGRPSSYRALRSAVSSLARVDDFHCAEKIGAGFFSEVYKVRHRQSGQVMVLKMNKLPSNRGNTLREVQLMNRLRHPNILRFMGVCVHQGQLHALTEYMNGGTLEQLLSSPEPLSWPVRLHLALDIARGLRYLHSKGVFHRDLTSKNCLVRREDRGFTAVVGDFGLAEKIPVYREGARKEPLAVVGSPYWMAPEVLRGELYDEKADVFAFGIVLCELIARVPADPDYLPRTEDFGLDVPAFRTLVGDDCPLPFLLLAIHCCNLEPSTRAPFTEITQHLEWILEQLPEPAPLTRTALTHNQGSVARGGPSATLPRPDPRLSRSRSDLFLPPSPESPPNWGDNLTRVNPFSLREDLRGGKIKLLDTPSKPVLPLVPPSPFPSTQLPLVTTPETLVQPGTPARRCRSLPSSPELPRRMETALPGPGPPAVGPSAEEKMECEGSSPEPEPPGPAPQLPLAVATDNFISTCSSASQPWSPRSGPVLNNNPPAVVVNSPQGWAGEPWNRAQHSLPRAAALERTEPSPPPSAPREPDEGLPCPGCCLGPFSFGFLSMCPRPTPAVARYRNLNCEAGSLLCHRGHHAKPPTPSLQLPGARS
Description: as §1

TRKA = target: T38, TRKA (Homo sapiens, UniProt P04629)
T38 construct: purchased Reaction Biology Corp
Description: as §1

TSSK1B = target: T39, TSSK1B (Homo sapiens, UniProt Q9BXA7)
T39 construct: purchased Reaction Biology Corp
Description: as §1

TTBK1 = target: T40, TTBK1 (Homo sapiens, UniProt Q5TCY1)
T40 construct: purchased Reaction Biology Corp
Description: as §1

ULK3 = target: T41, ULK3 (Homo sapiens, UniProt Q6PHR2)
T41 construct: purchased Reaction Biology Corp
Description: as §1

YANK2 = target: T42, YANK2 (Homo sapiens, UniProt Q9NY57)
T42 construct: purchased Reaction Biology Corp
Description: as §1

ZAK = target: T43, ZAK (Homo sapiens, UniProt Q9NYL2)
T43 construct: purchased Reaction Biology Corp
T43 sequence (Q9NYL2 whole entry): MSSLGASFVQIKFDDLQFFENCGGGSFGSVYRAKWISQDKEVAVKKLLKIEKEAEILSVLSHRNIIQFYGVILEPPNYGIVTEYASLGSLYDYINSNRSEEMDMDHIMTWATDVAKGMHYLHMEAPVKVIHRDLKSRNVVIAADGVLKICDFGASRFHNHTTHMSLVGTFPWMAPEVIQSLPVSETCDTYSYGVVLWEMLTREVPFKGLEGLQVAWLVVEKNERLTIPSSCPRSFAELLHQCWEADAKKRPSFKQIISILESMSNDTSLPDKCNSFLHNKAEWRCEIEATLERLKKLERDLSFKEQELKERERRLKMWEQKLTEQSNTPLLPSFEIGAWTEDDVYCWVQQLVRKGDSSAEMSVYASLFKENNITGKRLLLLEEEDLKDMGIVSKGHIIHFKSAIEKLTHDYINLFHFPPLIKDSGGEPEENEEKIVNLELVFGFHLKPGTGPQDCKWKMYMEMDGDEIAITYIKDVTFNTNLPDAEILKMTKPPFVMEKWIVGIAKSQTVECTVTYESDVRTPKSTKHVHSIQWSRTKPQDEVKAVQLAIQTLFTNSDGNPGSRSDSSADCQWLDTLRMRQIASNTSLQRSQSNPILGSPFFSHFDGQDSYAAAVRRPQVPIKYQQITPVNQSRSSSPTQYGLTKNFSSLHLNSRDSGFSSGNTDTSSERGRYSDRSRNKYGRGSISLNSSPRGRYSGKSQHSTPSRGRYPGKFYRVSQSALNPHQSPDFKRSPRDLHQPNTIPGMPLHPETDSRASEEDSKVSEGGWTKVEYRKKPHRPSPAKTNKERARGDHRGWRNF
Description: as §1

Question: Which results are given for CCn1cnc2c(NCc3ccc(-c4ccccn4)nc3)nc(-c3ccc(N)nc3)nc21 [Compound 30d, N-([2,2′-Bipyridin]-5-ylmethyl)-2-(6-aminopyridin-3-yl)-9-ethyl-9H-purin-6-amine]?
Answer: remaining activity at 10 µM (AurkA): 33.4%; remaining activity at 10 µM (AurkB): 73%; remaining activity at 10 µM (BTK): 103%; remaining activity at 10 µM (CAMK1a): 34%; remaining activity at 10 µM (CAMK2g): 105%; remaining activity at 10 µM (CDK4/cyclinD1): 33.5%; inhibition at 10 µM (CDK9/cyclinT1): > 95%; remaining activity at 10 µM (CDK9/cyclinT1): 0.8%; remaining activity at 10 µM (CHEK1): 79.5%; remaining activity at 10 µM (CSNK1G3): 24.4%; remaining activity at 10 µM (CSNK2A2): 91.3%; remaining activity at 10 µM (DAPK2): 85.7%; remaining activity at 10 µM (EPHA5): 5.9%; remaining activity at 10 µM (ERK5): 97.7%; remaining activity at 10 µM (ERN2): 65.4%; remaining activity at 10 µM (FGFR1): 28.8%; remaining activity at 10 µM (FLT4): 10%; remaining activity at 10 µM (FMS): 35.4%; remaining activity at 10 µM (GRK4): 88.3%; remaining activity at 10 µM (HPK1): 30.2%; remaining activity at 10 µM (INSR): 65.1%; remaining activity at 10 µM (JNK2): 61.7%; inhibition at 10 µM (LKB1): > 95%; remaining activity at 10 µM (LKB1): 0.1%; remaining activity at 10 µM (LRRK2): 17.7%; remaining activity at 10 µM (MNK1): 89.3%; remaining activity at 10 µM (MST2): 53.5%; inhibition at 10 µM (MYLK4): > 95%; remaining activity at 10 µM (MYLK4): 4.1%; remaining activity at 10 µM (MYO3b): 68.1%; remaining activity at 10 µM (NEK2): 91.1%; remaining activity at 10 µM (NEK9): 90%; remaining activity at 10 µM (OSR1): 50.8%; remaining activity at 10 µM (P38-alpha): 84.2%; remaining activity at 10 µM (PKN1): 85.4%; remaining activity at 10 µM (PRKD1): 70.3%; remaining activity at 10 µM (RIPK4): 97.8%; remaining activity at 10 µM (ROS1): 27.8%; remaining activity at 10 µM (STK23): 82.8%; remaining activity at 10 µM (TESK1): 93.1%; remaining activity at 10 µM (TRKA): 28.7%; remaining activity at 10 µM (TSSK1B): 38%; remaining activity at 10 µM (TTBK1): 108%; remaining activity at 10 µM (ULK3): 91.8%; remaining activity at 10 µM (YANK2): 57.6%; remaining activity at 10 µM (ZAK): 97.5%
